Measurements taken from PMC8621172, “Manipulating Estrogenic/Anti-Estrogenic Activity of Triphenylethylenes towards Development of Novel Anti-Neoplastic SERMs” (International Journal of Molecular Sciences, 2021).
Values joined by “and” are separate entries in the source; they are usually repeats but may differ in a detail not shown here. Equal entries are not always repeated.

Assays:
human ERα = biological target: T1, human ERα (Homo sapiens, UniProt P03372); experiment: Yeast estrogen screen (YES) assay, agonistic activity (β-galactosidase reporter); type: cell-based; details: triplicates; for Estrogenic Activity (relative β-galactosidase activity): compounds at 1 µM, compared to DMSO (set as 1); for EC50: YES assay
T1 construct: host or cells: Saccharomyces cerevisiae
T1 sequence (P03372 1-595): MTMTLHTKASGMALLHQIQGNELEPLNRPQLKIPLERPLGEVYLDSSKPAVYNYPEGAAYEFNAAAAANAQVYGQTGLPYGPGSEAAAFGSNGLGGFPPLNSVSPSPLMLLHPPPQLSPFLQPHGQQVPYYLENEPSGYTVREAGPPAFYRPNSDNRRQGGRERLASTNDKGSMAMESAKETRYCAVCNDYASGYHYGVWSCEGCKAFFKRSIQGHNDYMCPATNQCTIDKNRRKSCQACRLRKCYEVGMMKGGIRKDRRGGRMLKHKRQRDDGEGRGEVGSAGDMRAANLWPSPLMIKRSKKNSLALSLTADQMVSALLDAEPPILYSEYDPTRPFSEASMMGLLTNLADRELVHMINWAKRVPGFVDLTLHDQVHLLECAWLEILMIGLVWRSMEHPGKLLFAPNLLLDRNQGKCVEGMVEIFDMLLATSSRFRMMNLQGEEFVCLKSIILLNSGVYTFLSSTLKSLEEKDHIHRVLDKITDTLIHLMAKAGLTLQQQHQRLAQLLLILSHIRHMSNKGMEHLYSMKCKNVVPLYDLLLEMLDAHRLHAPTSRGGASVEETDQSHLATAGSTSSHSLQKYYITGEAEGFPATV
Protocol: All synthesized compounds were tested for their relative activity in β-galactosidase in a yeast estrogen screen (YES) assay. Compounds were tested for their relative estrogenic/anti-estrogenic activities in comparison to positive and negative controls, respectively. YES assay is a gene reporter assay where the DNA sequence of human ERα is integrated into the yeast genome completed with an expression plasmid carrying estrogen response elements (ERE) in the promoter controlling the expression of the reporter gene lacZ (encoding the enzyme β-galactosidase). In the presence of estrogenic compounds, β-galactosidase is synthesized and secreted into the medium, where it converts the chromogenic substrate chlorophenol red-β-D-galactopyranoside (CRPG) from a yellow to a red product, whose absorbance is measured. […] Therefore, we decided to test the novel compounds in an organ-specific in vitro model using the human Ishikawa endometrial adenocarcinoma cell line.
All synthesized compounds were tested for their relative β-galactosidase activity in a yeast estrogen screen (YES) assay at a concentration of 1 µM using DMSO as control (set as 1).
The yeast estrogen receptor assay was supplied by Dr. J.P. Sumpter (Brunel University, Uxbridge, UK) and was used to determine the relative transactivation activity of the human ERα as formerly described. Briefly, Saccharomyces cerevisiae stably transfected with a human ERα and an estrogen-responsive element fused to the reporter gene lacZ encoding for β-galactosidase were treated with the test substances for about 48 h. The β-galactosidase enzymatic activity was measured in a colorimetric assay using a microplate photometer by hydrolysis of the substrate chlorophenol red β-D-galactopyranoside (Roche Diagnostics, Mannheim, Germany), which leads to the formation of chlorophenol red. This can be measured as an increased absorption at 540 nm. All compounds were diluted in DMSO. […] All compounds were tested in technical quadruplicates and biological triplicates. Statistical analysis was performed by analysis of variance (ANOVA) and Tukey’s post-hoc test with the significance level of p < 0.05.

60 NCI tumor cell lines = experiment: NCI-60 single-dose growth inhibition screen (SRB); type: cell-based, human; details: for inhibition at 10 µM: Homo sapiens, mean over 60 NCI tumor cell lines; for anti-proliferative activity (in words): 10 µM, NCI-60 panel and MCF-7
Protocol: The anti-proliferative effects of the novel analogs were tested in vitro by the National Cancer Institute (NCI) on a panel of 60 human tumor cell lines at 10 µM. Compounds that elicited mean growth inhibition ≥50% were selected by the NCI for 5-dose testing.
Compounds were submitted to the Developmental Therapeutics Program (DTP) of the National Cancer Institute (NCI). The program uses a panel of 60 human tumor cell lines representing nine tissue types, including leukemia, non-small cell lung cancer (NSCLC), melanoma, colon cancer, ovarian cancer, CNS cancer, renal cancer, prostate cancer, and breast cancer, to screen for potential new anti-cancer agents. […] Primary screening of synthesized compounds was performed by testing a single high dose of 10 µM in the full NCI-60 panel. The percent growth of treated cells relative to the no-drug control and relative to the time zero number of cells was measured, and a mean graph was provided. The percentage inhibition was then calculated by subtracting the values obtained from 100.
All compounds were subjected to the NCI in vitro disease-oriented human cells screening panel assay. The human tumor cell lines of the cancer-screening panel are grown in RPMI 1640 medium containing 5% fetal bovine serum and 2 mM L-glutamine. For a typical screening experiment, cells are inoculated into 96-well microtiter plates in 100 μL at plating densities ranging from 5000 to 40,000 cells/well depending on the doubling time of individual cell lines. After cell inoculation, the microtiter plates are incubated at 37 °C, 5% CO2, 95% air, and 100% relative humidity for 24 h prior to the addition of experimental drugs. After 24 h, two plates of each cell line are fixed in situ with TCA to represent a measurement of the cell population for each cell line at the time of drug addition. Experimental drugs are solubilized in dimethyl sulfoxide at 400-fold the desired final maximum test concentration and stored frozen prior to use. At the time of drug addition, an aliquot of frozen concentrate is thawed and diluted to twice the desired final maximum test concentration with complete medium containing 50 μg/mL gentamicin. Additional four, 10-fold, or ½ log serial dilutions are made to provide a total of five drug concentrations plus control. Aliquots of 100 μL of these different drug dilutions are added to the appropriate microtiter wells already containing 100 μL of medium, resulting in the required final drug concentrations. Following drug addition, the plates are incubated for an additional 48 h at 37 °C, 5% CO2, 95% air, and 100% relative humidity. For adherent cells, the assay is terminated by the addition of cold TCA. Cells are fixed in situ by the gentle addition of 50 μL of cold 50% (w/v) TCA (final concentration, 10% TCA) and incubated for 60 min at 4 °C. The supernatant is discarded, and the plates are washed five times with tap water and air-dried. Sulforhodamine B (SRB) solution (100 μL) at 0.4% (w/v) in 1% acetic acid is added to each well, and plates are incubated for 10 min at room temperature. After staining, unbound dye is removed by washing five times with 1% acetic acid, and the plates are air-dried. Bound stain is subsequently solubilized with a 10 mM trizma base, and the absorbance is read on an automated plate reader at a wavelength of 515 nm. For suspension cells, the methodology is the same except that the assay is terminated by fixing settled cells at the bottom of the wells by gently adding 50 μL of 80% TCA (final concentration, 16% TCA). Compounds are screened at a dose of 10 µM, hits showing mean growth inhibition over 60 cell lines >50% are escalated for 5-dose screening assay.

With `CCN(CC)CCOc1ccc(C(=C(C)c2ccc(F)c(OC)c2)c2ccc(Cl)cc2)cc1` [Compound 28, E/Z-(2-{4-[1-(4-Chlorophenyl)-2-(4-fluoro-3-methoxyphenyl)-propenyl]-phenoxy}-ethyl)-diethyl-amine] the “Estrogenic Activity (relative β-galactosidase activity)” value (human ERα) was 1.37 ± 0.39 and the inhibition at 10 µM (60 NCI tumor cell lines) was 92.3%.
With `COc1ccc(C(C)=C(c2ccc(Cl)cc2)c2ccc(OCCN3CCCCC3)cc2)cc1` [Compound 12, E/Z-1-(2-{4-[1-(4-Chloro-phenyl)-2-(4-methoxy-phenyl)-propenyl]-phenoxy}-ethyl)-piperidine] the “Estrogenic Activity (relative β-galactosidase activity)” value (human ERα) was 3.65 ± 0.70 and the inhibition at 10 µM (60 NCI tumor cell lines) was 55.2%.
In the case of `COc1cc(C(C)=C(c2ccc(Cl)cc2)c2ccc(OCCCN(C)C)cc2)ccc1F` [Compound 22, E/Z-(3-{4-[1-(4-Chlorophenyl)-2-(4-fluoro-3-methoxyphenyl)-propenyl]-phenoxy}-propyl)-dimethyl-amine], the “Estrogenic Activity (relative β-galactosidase activity)” value (human ERα) is reported as 1.87 ± 0.74 and the inhibition at 10 µM (60 NCI tumor cell lines) is reported as 18.6%.
For `CC(=C(c1ccc(Cl)cc1)c1ccc(OCCN2CCCC2)cc1)c1ccccc1` [Compound 6, E/Z-1-(2-{4-[1-(4-Chloro-phenyl)-2-phenyl-propenyl]-phenoxy}-ethyl)-pyrrolidine], the “Estrogenic Activity (relative β-galactosidase activity)” value (human ERα) was 2.88 ± 0.89 and the inhibition at 10 µM (60 NCI tumor cell lines) was 37.8%.
In the case of `COc1cc(C(C)=C(c2ccc(O)cc2)c2ccc(Cl)cc2)ccc1F` [Compound 4, E/Z-4-[1-(4-Chlorophenyl)-2-(4-fluoro-3-methoxyphenyl)propenyl]-phenol], the EC50 (human ERα) is reported as 258 ± 80 nM, the “Estrogenic Activity (relative β-galactosidase activity)” value (human ERα) is reported as 6.62 ± 1.74 and the “anti-proliferative activity (in words)” value (60 NCI tumor cell lines) is reported as “lacked anti-proliferative activity”. For the same compound, the inhibition at 10 µM (60 NCI tumor cell lines) was 15.4%.
In the case of `COc1ccc(C(C)=C(c2ccc(Cl)cc2)c2ccc(OCCN(C)C)cc2)cc1F` [Compound 20, E/Z-(2-{4-[1-(4-Chlorophenyl)-2-(3-fluoro-4-methoxyphenyl)-propenyl]-phenoxy}-ethyl)-dimethyl-amine], the “Estrogenic Activity (relative β-galactosidase activity)” value (human ERα) is reported as 2.40 ± 0.64 and the inhibition at 10 µM (60 NCI tumor cell lines) is reported as 47%.
In the case of `COc1ccc(C(C)=C(c2ccc(Cl)cc2)c2ccc(OCCN3CCCC3)cc2)cc1F` [Compound 16, E/Z-1-(2-{4-[1-(4-Chlorophenyl)-2-(3-fluoro-4-methoxyphenyl)-propenyl]-phenoxy}-ethyl)-pyrrolidine], the “Estrogenic Activity (relative β-galactosidase activity)” value (human ERα) is reported as 2.19 ± 0.71 and the inhibition at 10 µM (60 NCI tumor cell lines) is reported as 77.2%.
In the case of `COc1cc(C(C)=C(c2ccc(Cl)cc2)c2ccc(OCCN3CCCC3)cc2)ccc1F` [Compound 23, E/Z-1-(2-{4-[1-(4-Chlorophenyl)-2-(4-fluoro-3-methoxyphenyl)-propenyl]-phenoxy}-ethyl)-pyrrolidine], the “Estrogenic Activity (relative β-galactosidase activity)” value (human ERα) is reported as 1.41 ± 1.01 and the inhibition at 10 µM (60 NCI tumor cell lines) is reported as 46.9%.
`CC(=C(c1ccc(Cl)cc1)c1ccc(OCCN2CCCCCC2)cc1)c1ccccc1` [Compound 9, E/Z-1-(2-{4-[1-(4-Chloro-phenyl)-2-phenyl-propenyl]-phenoxy}-ethyl)-azepane] was tested, and the “Estrogenic Activity (relative β-galactosidase activity)” value (human ERα) was 6.74 and 6.74 ± 1.67 and the inhibition at 10 µM (60 NCI tumor cell lines) was 25.4%.
`COc1ccc(C(C)=C(c2ccc(Cl)cc2)c2ccc(OCCN3CCCCCC3)cc2)cc1F` [Compound 19, E/Z-1-(2-{4-[1-(4-Chlorophenyl)-2-(3-fluoro-4-methoxyphenyl)-propenyl]-phenoxy}-ethyl)-azepane] was tested, and the EC50 (human ERα) was 407 ± 86 nM, the “Estrogenic Activity (relative β-galactosidase activity)” value (human ERα) was 3.22 and 3.22 ± 1.22 and the inhibition at 10 µM (60 NCI tumor cell lines) was 60.8%.
In the case of `COc1ccc(C(C)=C(c2ccc(Cl)cc2)c2ccc(OCCN3CCCC3)cc2)cc1` [Compound 11, E/Z-1-(2-{4-[1-(4-Chloro-phenyl)-2-(4-methoxy-phenyl)-propenyl]-phenoxy}-ethyl)-pyrrolidine], the “Estrogenic Activity (relative β-galactosidase activity)” value (human ERα) is reported as 1.98 ± 0.12 and the inhibition at 10 µM (60 NCI tumor cell lines) is reported as 67.8%.
With `COc1ccc(C(C)=C(c2ccc(Cl)cc2)c2ccc(OCCN3CCCCCC3)cc2)cc1` [Compound 14, E/Z-1-(2-{4-[1-(4-Chloro-phenyl)-2-(4-methoxy-phenyl)-propenyl]-phenoxy}-ethyl)-azepane] the “Estrogenic Activity (relative β-galactosidase activity)” value (human ERα) was 1.80 ± 0.09 and the inhibition at 10 µM (60 NCI tumor cell lines) was 47.3%.
In the case of `COc1cc(C(C)=C(c2ccc(Cl)cc2)c2ccc(OCCN3CCCCC3)cc2)ccc1F` [Compound 24, E/Z-1-(2-{4-[1-(4-Chlorophenyl)-2-(4-fluoro-3-methoxyphenyl)-propenyl]-phenoxy}-ethyl)-piperidine], the “Estrogenic Activity (relative β-galactosidase activity)” value (human ERα) is reported as 1.19 ± 0.20 and the inhibition at 10 µM (60 NCI tumor cell lines) is reported as 29.2%.
With `COc1cc(C(C)=C(c2ccc(Cl)cc2)c2ccc(OCCN3CCOCC3)cc2)ccc1F` [Compound 25, E/Z-4-(2-{4-[1-(4-Chlorophenyl)-2-(4-fluoro-3-methoxyphenyl)-propenyl]-phenoxy}-ethyl)-morpholine] the “Estrogenic Activity (relative β-galactosidase activity)” value (human ERα) was 1.31 ± 0.30, the “anti-proliferative activity (in words)” value (60 NCI tumor cell lines) was “lacked anti-proliferative activity” and the inhibition at 10 µM (60 NCI tumor cell lines) was 12.8%.
In the case of `COc1ccc(C(C)=C(c2ccc(Cl)cc2)c2ccc(OCCN3CCOCC3)cc2)cc1` [Compound 13, E/Z-4-(2-{4-[1-(4-Chloro-phenyl)-2-(4-methoxy-phenyl)-propenyl]-phenoxy}-ethyl)-morpholine], the “Estrogenic Activity (relative β-galactosidase activity)” value (human ERα) is reported as 12.41 and 12.41 ± 0.26, the “anti-proliferative activity (in words)” value (60 NCI tumor cell lines) is reported as “lacked anti-proliferative activity” and the inhibition at 10 µM (60 NCI tumor cell lines) is reported as 7.86%.
With `CC(=C(c1ccc(Cl)cc1)c1ccc(OCCN2CCOCC2)cc1)c1ccccc1` [Compound 8, E/Z-4-(2-{4-[1-(4-Chloro-phenyl)-2-phenyl-propenyl]-phenoxy}-ethyl)-morpholine] the “Estrogenic Activity (relative β-galactosidase activity)” value (human ERα) was 1.85 ± 0.11, the “anti-proliferative activity (in words)” value (60 NCI tumor cell lines) was “lacked anti-proliferative activity” and the inhibition at 10 µM (60 NCI tumor cell lines) was 9.4%.
